Earlier results, collected in PubChem BioAssay AID1259409 (Chemical Carcinogenesis Research Information System (CCRIS), 2018).

Test system: rodent chemically induced tumor inhibition, incidence and multiplicity
Test: CCRIS tumor inhibitor studies

Structure (SMILES): COc1cc(/C=C/C(=O)CC(=O)/C=C/c2ccc(O)c(OC)c2)ccc1O
- tumour outcome (control, treated, inhibition, significance) (Carcinogen: 1,2-DIMETHYLHYDRAZINE [540-73-8], Species: RAT, Strain/Sex: WISTAR, Target Tissue: Type of Lesion: COLON, Dose [Carcinogen]: 20 MG/KG): 81.3%, 61%, 25%, p<0.05
- tumour outcome (control, treated, inhibition, significance) (Carcinogen: 2,2'-DIHYDROXY-DI-N-PROPYLNITROSAMINE, 53609-64-6, N-ETHYL-N-HYDROXYETHYLNITROSAMINE, 13147-25-6, 3,2'-DIMETHYL-1,4-, Carcinogen: 2,2'-DIHYDROXY-DI-N-PROPYLNITROSAMINE, 53609-64-6, N-ETHYL-N-HYDROXYETHYLNITROSAMINE, 13147-25-6, 3,2'-DIMETHYL-1,4-, Dose [Inhibitor]: 0, 1% IN DIET FOR 4 WK BEGINNING 1 D PRIOR TO FIRST CARCINOGEN DOSE (STUDY DURATION: 36 WK), Route [Inhibitor]: ORAL, Species: RAT, Strain/Sex: F344/MALE, Target Tissue: Type of Lesion: KIDNEY: ADENOMA, Dose [Carcinogen]: 1000 MG/KG BW DHPN TWICE, 1500 MG/KG EHEN TWICE, 75 MG/KG BW DMAB 3 TIMES, SEQUENTIALLY OVER 3 WK, Promoter: NONE USED): 6/10 (60%), 6/13 (46%), 23%, not significant
- tumour outcome (control, treated, inhibition, significance) (Carcinogen: 2,2'-DIHYDROXY-DI-N-PROPYLNITROSAMINE, 53609-64-6, N-ETHYL-N-HYDROXYETHYLNITROSAMINE, 13147-25-6, 3,2'-DIMETHYL-1,4-, Carcinogen: 2,2'-DIHYDROXY-DI-N-PROPYLNITROSAMINE, 53609-64-6, N-ETHYL-N-HYDROXYETHYLNITROSAMINE, 13147-25-6, 3,2'-DIMETHYL-1,4-, Dose [Inhibitor]: 0, 1% IN DIET FOR 4 WK BEGINNING 1 D PRIOR TO FIRST CARCINOGEN DOSE (STUDY DURATION: 36 WK), Route [Inhibitor]: ORAL, Species: RAT, Strain/Sex: F344/MALE, Target Tissue: Type of Lesion: LUNG: ADENOMA, Dose [Carcinogen]: 1000 MG/KG BW DHPN TWICE, 1500 MG/KG EHEN TWICE, 75 MG/KG BW DMAB 3 TIMES, SEQUENTIALLY OVER 3 WK, Promoter: NONE USED): 5/10 (50%), 10/13 (77%), -54%, not significant
- tumour outcome (control, treated, inhibition, significance) (Carcinogen: 4-NITROQUINOLINE-1-OXIDE, 56-57-5, Dose [Inhibitor]: 0, 500 PPM IN DIET FOR 10 WK BEGINNING 1 WK PRIOR TO CARCINOGEN TREATMENT (STUDY DURATION: 32 WK), Route [Inhibitor]: ORAL, Species: RAT, Strain/Sex: F344/MALE, Target Tissue: Type of Lesion: TONGUE: CARCINOMA, Dose [Carcinogen]: 20 PPM IN DRINKING WATER FOR 8 WK, Promoter: NONE USED): 13/24 (54%), 1/19 (5%), 91%, p<0.05
- tumour outcome (control, treated, inhibition, significance) (Carcinogen: 4-NITROQUINOLINE-1-OXIDE, 56-57-5, Dose [Inhibitor]: 0, 500 PPM IN DIET FOR 10 WK BEGINNING 1 WK PRIOR TO CARCINOGEN TREATMENT (STUDY DURATION: 32 WK), Route [Inhibitor]: ORAL, Species: RAT, Strain/Sex: F344/MALE, Target Tissue: Type of Lesion: TONGUE: PAPILLOMA, Dose [Carcinogen]: 20 PPM IN DRINKING WATER FOR 8 WK, Promoter: NONE USED): 4/24 (17%), 0/19 (0%), 100%, not significant
- tumour outcome (control, treated, inhibition, significance) (Carcinogen: 4-NITROQUINOLINE-1-OXIDE, 56-57-5, Dose [Inhibitor]: 0, 500 PPM IN DIET FOR 22 WK BEGINNING 1 WK POST CARCINOGEN TREATMENT (STUDY DURATION: 32 WK), Route [Inhibitor]: ORAL, Species: RAT, Strain/Sex: F344/MALE, Target Tissue: Type of Lesion: TONGUE: CARCINOMA, Dose [Carcinogen]: 20 PPM IN DRINKING WATER FOR 8 WK, Promoter: NONE USED): 13/24 (54%), 3/20 (15%), 72%, p<0.05
- tumour outcome (control, treated, inhibition, significance) (Carcinogen: 4-NITROQUINOLINE-1-OXIDE, 56-57-5, Dose [Inhibitor]: 0, 500 PPM IN DIET FOR 22 WK BEGINNING 1 WK POST CARCINOGEN TREATMENT (STUDY DURATION: 32 WK), Route [Inhibitor]: ORAL, Species: RAT, Strain/Sex: F344/MALE, Target Tissue: Type of Lesion: TONGUE: PAPILLOMA, Dose [Carcinogen]: 20 PPM IN DRINKING WATER FOR 8 WK, Promoter: NONE USED): 4/24 (17%), 2/20 (10%), 41%, not significant
- tumour outcome (control, treated, inhibition, significance) (Carcinogen: 7,12-DIMETHYLBENZ[A]ANTHRACENE, 57-97-6, Dose [Inhibitor]: 0: 5% IN DIET FOR DURATION OF STUDY BEGINNING 2 WK PRIOR TO CARCINOGEN DOSE (STUDY DURATION: 6 MO), Route [Inhibitor]: ORAL, Species: RAT, Strain/Sex: WISTAR/FEMALE, Target Tissue: Type of Lesion: MAMMARY GLAND: TUMOR, Dose [Carcinogen]: 10 MG IN PEANUT OIL INJECTED INTO SUBCUTANEOUS POUCH CREATED IN THE 5TH AND 6TH MAMMARY GLAND REGION, Promoter: NONE USED): 20/20 (100%), 5/20 (25%), 75%, p<0.001
- tumour outcome (control, treated, inhibition, significance) (Carcinogen: 7,12-DIMETHYLBENZ[A]ANTHRACENE, 57-97-6, Dose [Inhibitor]: 0, 2% IN DIET FOR 22 WK BEGINNING 2 WK PRIOR TO CARCINOGEN DOSE (STUDY DURATION: 22 WK), Route [Inhibitor]: ORAL, Species: MOUSE, Strain/Sex: SENCAR/FEMALE, Target Tissue: Type of Lesion: LYMPHATIC SYSTEM:LYMPHOMA OR LEUKEMIA, Dose [Carcinogen]: 1 MG IN 0.1 ML CORN OIL 1/WK FOR 5 WK, Promoter: NONE USED): 45%, 21%, 53%, p<0.05
- tumour outcome (control, treated, inhibition, significance) (Carcinogen: 7,12-DIMETHYLBENZ[A]ANTHRACENE, 57-97-6, Dose [Inhibitor]: 0, 2% IN DIET FOR 22 WK BEGINNING 2 WK PRIOR TO CARCINOGEN DOSE (STUDY DURATION: 22 WK), Route [Inhibitor]: ORAL, Species: MOUSE, Strain/Sex: SENCAR/FEMALE, Target Tissue: Type of Lesion: MAMMARY GLAND: TUMOR, Dose [Carcinogen]: 1 MG IN 0.1 ML CORN OIL 1/WK FOR 5 WK, Promoter: NONE USED): 68%, 78%, -15%, not significant
- tumour outcome (control, treated, inhibition, significance) (Carcinogen: 7,12-DIMETHYLBENZ[A]ANTHRACENE, 57-97-6, Dose [Inhibitor]: 0, 2% IN DIET FOR 22 WK BEGINNING 2 WK PRIOR TO CARCINOGEN DOSE (STUDY DURATION: 22 WK), Route [Inhibitor]: ORAL, Species: MOUSE, Strain/Sex: SENCAR/FEMALE, Target Tissue: Type of Lesion: OVARY:TUMOR, Dose [Carcinogen]: 1 MG IN 0.1 ML CORN OIL 1/WK FOR 5 WK, Promoter: NONE USED): 20%, 8%, 60%, p<0.1
- tumour outcome (control, treated, inhibition, significance) (Carcinogen: 7,12-DIMETHYLBENZ[A]ANTHRACENE, 57-97-6, Dose [Inhibitor]: 0, 3 UMOL IN ACETONE 1/WK FOR 10 WK APPLIED 5 MIN PRIOR TO EACH CARCINOGEN DOSE (STUDY DURATION: 26 WK), Route [Inhibitor]: DERMAL, Species: MOUSE, Strain/Sex: CD-1/FEMALE, Target Tissue: Type of Lesion: SKIN: TUMORS, Dose [Carcinogen]: 2 NMOL 1/WK FOR 10 WK, Promoter: 12-O-TETRADECANOYLPHORBOL-13-ACETATE, 16561-29-8): 100%, 98%, 2%, not calculated
- tumour outcome (control, treated, inhibition, significance) (Carcinogen: 7,12-DIMETHYLBENZ[A]ANTHRACENE, 57-97-6, Dose [Inhibitor]: 0, 10 UMOL IN ACETONE 1/WK FOR 10 WK APPLIED 5 MIN PRIOR TO EACH CARCINOGEN DOSE (STUDY DURATION: 26 WK), Route [Inhibitor]: DERMAL, Species: MOUSE, Strain/Sex: CD-1/FEMALE, Target Tissue: Type of Lesion: SKIN: TUMORS, Dose [Carcinogen]: 2 NMOL 1/WK FOR 10 WK, Promoter: 12-O-TETRADECANOYLPHORBOL-13-ACETATE, 16561-29-8): 100%, 98%, 2%, not calculated
- tumour outcome (control, treated, inhibition, significance) (Carcinogen: 7,12-DIMETHYLBENZ[A]ANTHRACENE, 57-97-6, Dose [Inhibitor]: 10 UMOL IN 200 µL ACETONE 2/WK FOR 19 WK BEGINNING 1 WK POST CARCINOGEN DOSE (STUDY DURATION: 20 WK), Route [Inhibitor]: DERMAL, Species: MOUSE, Strain/Sex: CD-1/FEMALE, Target Tissue: Type of Lesion: SKIN: PAPILLOMA, Dose [Carcinogen]: 200 NMOL IN 200 µL ACETONE ONCE, Promoter: 12-O-TETRADECANOYLPHORBOL-13-ACETATE, 16561-29-8): 68%, 0%, 100%, not calculated
